Converted amounts (≈) assume the structure as drawn.
Legend:
Salmonella strain 14028s [1] = experiment: Minimum inhibitory concentration in EG minimal media; assay type: cell-based, Salmonella Typhimurium; settings: 18 h
Procedure, shortened: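 Wild-type Salmonella strain 14028s was cultured overnight (18.5 h), then diluted into EG minimal media at roughly 10^5 CFU/mL. Tubes were shaken at 37° C. for 18 h and checked for bacterial growth, a proxy for DksA-dependent metabolic regulation. The MIC was the lowest compound concentration that prevented growth.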

Compound solubility = assay type: physicochemical
Salmonella strain 14028s [2] = experiment: Growth and survival assay in combination with antibiotics that target DNA replication; assay type: cell-based; settings: #21 8 μg/ml, #23 16 μg/ml; EG media, 37° C., 20 hrs
Protocol: Salmonella strain 14028s was grown overnight at 37° C. with shaking in LB broth. Cell density was measured by spectrometer by following OD600. Cells were centrifuged and washed once with EG Minimal Salts Media (57.4 mM K2HPO4, 1.7 mM MgSO4, 9.5 mM Citric acid, 16.7 mM H5NNaPO4, and 0.4% D-Glucose, pH 7.0). The specimens were then resuspended with EG media and adjusted to the final concentration of 1×10^5/ml.
One hundred microliters of the cell dilution were plated onto LB agar plate to verify the starting concentration. Ten 5-ml cell culture tubes were prepared, and the diluted cells were transferred to the culture tubes at 1 ml/tube. The first culture tube was reserved as the control. The remaining nine tubes were divided into 3 groups (3 tubes each), which were treated with Nitrofurazone, 4-Nitroquinoline N-oxide, and Mitomycin C at 8 μM, 8 μM, and 0.75 μM, respectively. Within each group, two of the tubes additionally received compounds #21 or #23 at 8 μg/ml and 16 μg/ml, respectively. All tubes were then incubated with shaking at 37° C. for 20 hrs. Cells were collected, diluted, plated on LB agar plates, and subsequently counted. Survival percentages were calculated using bacteria counts divided by starting concentration.

DksA = DksA (Salmonella typhimurium, UniProt P0A1G5); experiment: DksA-dependent livJ in vitro transcription; assay type: biochemical; settings: livJ promoter
Chain of DksA (P0A1G5 whole entry): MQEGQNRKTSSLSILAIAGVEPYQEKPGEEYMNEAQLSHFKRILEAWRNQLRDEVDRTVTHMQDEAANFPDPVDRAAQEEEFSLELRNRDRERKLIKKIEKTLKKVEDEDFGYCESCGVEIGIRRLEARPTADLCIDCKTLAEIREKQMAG
Procedure, shortened: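 Template plasmid (5 nM) was transcribed for 10 min at 37° C by 5 nM E. coli RNA polymerase holoenzyme with 5 μM DksA, 200 μM each NTP, pH 7.4 HEPES buffer. Compounds were at 0.1-100 nM, initial tests at 0.1 and 1 μM on livJ promoter. Transcripts were quantified by RT-qPCR against a standard curve; IC50 at 50% inhibition from 3 independent experiments.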

## COc1ccc(CCNC(=O)c2nc[nH]n2)cc1 [Compound 21, N-(4-methoxyphenethyl)-1H-1,2,4-triazole-3-carboxamide]
Salmonella strain 14028s [1]; 1 μg/ml, EG minimal media, 37° C.
  Growth in EG at concentration tested 1 μg/ml: +
Salmonella strain 14028s [1]; 2 μg/ml, EG minimal media, 37° C.
  Growth in EG at concentration tested 2 μg/ml: +
Salmonella strain 14028s [1]; 4 μg/ml, EG minimal media, 37° C.
  Growth in EG at concentration tested 4 μg/ml: +
Salmonella strain 14028s [1]; 8 μg/ml, EG minimal media, 37° C.
  Growth in EG at concentration tested 8 μg/ml: +
Salmonella strain 14028s [1]; 16 μg/ml, EG minimal media, 37° C.
  Growth in EG at concentration tested 16 μg/ml: +
Salmonella strain 14028s [1]; Salmonella, 14028S
  MIC: 32 µg/mL (≈ 130 µM)
Compound solubility; solvent at 1 μM
  Compound Solubility, 1 μM: water
Compound solubility; solvent at 10 μM
  Compound Solubility, 10 μM: water
Compound solubility; solvent at 100 μM
  Compound Solubility, 100 μM: water
Compound solubility; solvent at 1 mM
  Compound Solubility, 1 mM: water
Compound solubility; solvent at 10 mM
  Compound Solubility, 10 mM: water
Compound solubility; solvent at 16 mg/ml
  Compound Solubility, 16 mg/ml: DMSO
Salmonella strain 14028s [2]
  Anti-Salmonella activity of 4-nitroquinoline-N-oxide, nitrofurazone and mytomycin in combination: enhanced the anti-Salmonella activity
DksA; 0.1 μM
  In vitro transcription assay result, 0.1 μM: no induction
DksA; 1 μM
  In vitro transcription assay result, 1 μM: no induction
DksA; concentration showing activity
  IVT: 0.1 µM
